In brackets after ≈: the same amount, converted by molar mass. Entries after “also recorded” stand apart in the source; their conditions may differ. Read-outs that look alike come from different tables or passages of the source.
How the values were obtained:
Candida albicans [1] = assay: Kirby-Bauer Testing, Candida albicans; type: cell-based; settings: 10 μl of 10 mg/mL per disk, 30° C., 16 hours
Description: The hydroxyitraconazole isomers were tested for biological activity according three different assays. Table 2 summarizes the results of Kirby-Bauer Testing against three actively growing cultures: Candida albicans, Cryptococcus neoformens and Saccromyces cerevisiae. […] A 10 mL tube containing 4 mL of Sabourauds dextrose broth was inoculated with 1 colony of Candida albicans picked from a plate of pure culture. The strain was ordered from the American Type Culture Collection (ATCC). The organism was grown for 4 hours at 30° C. while shaking at 150 RPM. While the organism was growing, samples of hydroxy-itraconazoles were solubilized to a concentration of 10 mg/mL in DMSO. Each sample was then diluted 1:10 to make 1 mg/mL samples or 1000 μg/mL. […] A 96-well microtiter dish was set up with 98 μL of liquid growth media in each test well, along with 1 μL of hydroxy-itraconazole solution. At 4 hours of growth time the Candida albicans was diluted to a 0.5 McFarland standard representing about 10^5 -10^6 cells/mL and 1 μL of this inoculum placed into each test well of the microtiter dish. The dish was then covered and incubated at 30° C. for 16 hours. Actively growing cultures of Candida albicans, Cryptococcus neoformens and Saccharomyces cerevisiae were prepared as described above. […] Zones of inhibition were then measured in mm.

Cryptococcus neoformens = assay: Kirby-Bauer Testing, Cryptococcus neoformens; type: cell-based; settings: 10 μl of 10 mg/mL per disk, 30° C., 16 hours
Description: The hydroxyitraconazole isomers were tested for biological activity according three different assays. Table 2 summarizes the results of Kirby-Bauer Testing against three actively growing cultures: Candida albicans, Cryptococcus neoformens and Saccromyces cerevisiae.
(§1) Actively growing cultures of Candida albicans, Cryptococcus neoformens and Saccharomyces cerevisiae were prepared as described above. The cultures were diluted to a 0.5 McFarland standard and swabbed onto a 150 mm Sabouraud Dextrose agar plates. Paper disks (7 mm) were placed onto the agar plates using a disk dispenser. Next 10 μl of 10 mg/mL solutions of each sample hydroxy-itraconazole was pipetted onto separate paper disks. The plates were then incubated at 30° C. for 16 hours. Zones of inhibition were then measured in mm.

Aspergillis = assay: Kirby-Bauer Testing, Aspergillis; type: cell-based; settings: 16 h, 10 μl of 10 mg/mL per disk
Sacchromyces cerevisae = assay: Kirby-Bauer Testing, Saccharomyces cerevisiae; type: cell-based; settings: Saccharomyces cerevisiae, 10 μl of 10 mg/mL per disk, 30° C., 16 hours
Description: The hydroxyitraconazole isomers were tested for biological activity according three different assays.
as §1, with “Next 10 μl of 10 mg/mL solutions of each sample hydroxy-itraconazole was pipetted onto separate paper disks.” left out

Candida albicans [2] = assay: Antifungal MIC, Candida albicans; type: cell-based; settings: Candida albicans
Description: (§2) A 10 mL tube containing 4 mL of Sabourauds dextrose broth was inoculated with 1 colony of Candida albicans picked from a plate of pure culture. The strain was ordered from the American Type Culture Collection (ATCC). The organism was grown for 4 hours at 30° C. while shaking at 150 RPM. While the organism was growing, samples of hydroxy-itraconazoles were solubilized to a concentration of 10 mg/mL in DMSO. Each sample was then diluted 1:10 to make 1 mg/mL samples or 1000 μg/mL. These samples were then diluted by serial 2-fold dilutions to produce samples now containing 1000, 500, 250, 125, 62.5, 31.25, 15.6 μg/mL. […] At 4 hours of growth time the Candida albicans was diluted to a 0.5 McFarland standard representing about 10^5 -10^6 cells/mL and 1 μL of this inoculum placed into each test well of the microtiter dish. The dish was then covered and incubated at 30° C. for 16 hours.

Cr. neoformens = assay: Antifungal MIC, Cr. neoformens; type: cell-based, Cryptococcus neoformens; settings: Cryptococcus; Cr. neoformens (Table 3)
Description: [The source words this procedure for another organism and reports this organism under the same test.] as §2

S. cerevisae = assay: Antifungal MIC, S. cerevisae; type: cell-based, Saccharomyces cerevisiae; settings: Saccharomyces cerevisiae; S. cerevisae (Table 3)
Description: [The source words this procedure for another organism and reports this organism under the same test.] as §2

A. fumigatis = assay: Antifungal MIC, A. fumigatis; type: cell-based; settings: A. fumigatis (Table 3)
Description: [The source words this procedure for another organism and reports this organism under the same test.] as §2

[3] = Water solubility of hydroxyitraconazole isomers and itraconazole; type: physicochemical
Description: The isomers of cis hydroxyitraconazole were tested for water solubility against a […] standard solution of hydroxyitraconazole. […] The values for 3+4 and 11+12 are barely above the LOD, giving accuracies of ±10%. In every case, solubilities were in the 10^1 to 10^2 ng/ml range.

[4] = Water solubility of hydroxyitraconazole phosphate isomers (NMG salts); type: physicochemical; settings: water; Table 8
From the text: The water solubility of the NMG salts of the phosphate esters of isomers 1, 2 and 3+4 were investigated and compared to the corresponding hydroxyitraconazole isomers 1, 2 and 3+4. The phosphate esters were as much as 10^7 times more water soluble than the corresponding hydroxyitraconazole isomer.

cytochrome P450 3A4 [5] = biological target: T1, cytochrome P450 3A4 (Homo sapiens, UniProt P08684)
T1 sequence (P08684 whole entry): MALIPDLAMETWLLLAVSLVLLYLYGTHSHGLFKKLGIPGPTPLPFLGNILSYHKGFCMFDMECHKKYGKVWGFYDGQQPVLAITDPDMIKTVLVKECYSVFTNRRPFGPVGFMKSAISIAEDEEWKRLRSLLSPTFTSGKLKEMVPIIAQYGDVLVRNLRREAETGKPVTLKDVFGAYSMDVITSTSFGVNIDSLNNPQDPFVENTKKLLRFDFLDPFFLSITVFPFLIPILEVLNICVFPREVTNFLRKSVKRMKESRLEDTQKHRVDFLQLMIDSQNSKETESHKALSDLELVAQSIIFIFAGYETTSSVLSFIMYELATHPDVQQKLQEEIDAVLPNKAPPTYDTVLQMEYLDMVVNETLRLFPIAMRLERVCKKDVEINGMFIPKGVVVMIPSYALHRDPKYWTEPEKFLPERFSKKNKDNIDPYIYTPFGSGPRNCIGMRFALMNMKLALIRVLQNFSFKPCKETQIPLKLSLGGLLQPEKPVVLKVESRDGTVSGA
Description: (§3) The IC50 values were determined by the appearance of 6β-hydroxytestosterone after incubation with testosterone. […] Of greater clinical significance is the ratio of the IC50 for 3A4 to the MIC for C. albicans 44203.

cytochrome P450 3A4 [6] = biological target: T1, cytochrome P450 3A4; assay: Inhibition of cytochrome P450 3A4 (testosterone 6β-hydroxylase activity)
Description: as §3

[7] = cited from earlier work
[8] = cited from earlier work; remark: listed apart in the source
fungi and bacteria = settings: cited from earlier work
synthesis of ergosterol = settings: cited from earlier work

## C[C@@H](O)[C@H](C)n1ncn(-c2ccc(N3CCN(c4ccc(OC[C@H]5CO[C@](Cn6cncn6)(c6ccc(Cl)cc6Cl)O5)cc4)CC3)cc2)c1=O [Compound 1]
Candida albicans [1]
  zone of inhibition at 10000 µg/mL: 22 mm
Cryptococcus neoformens
  zone of inhibition at 10000 µg/mL: 28 mm
Aspergillis
  zone of inhibition at 10000 µg/mL: 27 mm
Sacchromyces cerevisae
  zone of inhibition at 10000 µg/mL: 22 mm
Candida albicans [2]; C. albicans strain 10231 (Table 3), read-out: Antifungal MIC
  MIC: 1 µg/mL (≈ 1.39 µM)
Candida albicans [2]; C. albicans strain 28516 (Table 3), read-out: Antifungal MIC
  MIC: 0.25 µg/mL (≈ 0.346 µM)
Candida albicans [2]; C. albicans strain 28815 (Table 3), read-out: Antifungal MIC
  MIC: 0.125 µg/mL (≈ 0.173 µM)
Candida albicans [2]; C. albicans strain 44203 (Table 3), read-out: Antifungal MIC
  MIC: 0.05 µg/mL (≈ 0.0693 µM)
Candida albicans [2]; C. albicans strain 44373 (Table 3), read-out: Antifungal MIC
  MIC: 0.5 µg/mL (≈ 0.693 µM)
Candida albicans [2]; C. albicans strain 62342 (Table 3), read-out: Antifungal MIC
  MIC: 0.5 µg/mL (≈ 0.693 µM)
Candida albicans [2]; Candida albicans strain 44203 (Table 4), read-out: MIC
  MIC: 0.05 µg/mL (≈ 0.0693 µM)
Cr. neoformens
  MIC: 0.39 µg/mL (≈ 0.54 µM)
S. cerevisae
  MIC: 0.195 µg/mL (≈ 0.27 µM)
A. fumigatis
  MIC: 0.137 µg/mL (≈ 0.19 µM)
[3]; water, LOD: 5000 μV*sec, order-of-magnitude accuracy below LOD, 3+4 and 11+12 ±10%
  solubility: 0.051 µg/mL (≈ 0.0707 µM)
[3]; λmax = 260 nm, LOD 5000 μV*sec
  Area: 1499 μV*sec
[4]
  solubility: 0.051 µg/mL
Cytochrome P450 3A4 [5]
  Inhibition of P450 3A4 in words: notably less inhibition of the P450 3A4 enzyme than the 2S,4R isomers
Cytochrome P450 3A4 [6]
  IC50: 2800 nM
  selectivity ratio: 56
Cytochrome P450 3A4 [6]; therapeutic index, 3A4 vs C. albicans 44203
  IC50/MIC ratio in words: excellent results

## CCC(C)n1ncn(-c2ccc(N3CCN(c4ccc(OC[C@H]5CO[C@](Cn6cncn6)(c6ccc(Cl)cc6Cl)O5)cc4)CC3)cc2)c1=O (relative stereo) [itraconazole, 4-[4-[4-[4-[[2-(2,4-dichlorophenyl)-2-(1H-1,2,4-triazol-1-ylmethyl)-1,3-dioxolan-4-yl]methoxy]phenyl]-1-piperazinyl]phenyl]-2,4-dihydro-2-(1-methylpropyl)-3H-1,2,4-triazol-3-one]
Sacchromyces cerevisae
  zone of inhibition at 10000 µg/mL: 15 mm
Candida albicans [2]
  MIC: 0.06 µg/mL (≈ 0.085 µM)
[3]; LOD: 5000 μV*sec, order-of-magnitude accuracy below LOD, 3+4 and 11+12 ±10%, listed as Itraconazole
  Water solubility: such low water solubility that it could not be determined by this method
[3]; LOD: 5000 μV*sec, order-of-magnitude accuracy below LOD, 3+4 and 11+12 ±10%, listed as ±Itraconazole
  Water solubility: not detected
[7]; in most subjects
  Urinary excretion of metabolites: no metabolites are excreted in the urine
[7]; oral
  Absorption following oral administration: slowly absorbed
  Pharmacokinetic behavior: nonlinear
[8]; administration of itraconazole
  Adverse effects: hepatotoxicity and inhibition of drug metabolism in the liver; also recorded: Hypersensitivity reactions including urticaria and elevations in serum liver enzymes
[8]; racemic itraconazole concurrently with terfenadine
  Torsades de Pointes: Torsades de Pointes, has been reported
Fungi and bacteria; Sabouraud broth containing 10% inactivated bovine serum
  Effect of serum on antifungal activity: enhanced in vitro
Fungi and bacteria; Sabouraud broth, 14 days, Microsporum canis, Trichophyton mentagrophytes, Candida albicans, Aspergillus spp. and others
  Inhibition of growth: Complete or marked inhibition of growth
Synthesis of ergosterol
  Effect on synthesis of ergosterol: impairs the synthesis of ergosterol

Reference: US6147077A, “2R,4S-hydroxyitraconazole isomers” (priority 1999, dated 2000)
